Results on three compounds are retold here after US9504747B2, “Lipids and lipid compositions for the delivery of active agents” (Novartis AG, priority 2013, dated 2016).

Test system in the first data set: not listed separately
As to the kind of experiment: pKa measurement of the cationic lipid (TNS fluorescence vs pH). It is filed as physicochemical. The note with it: probe TNS (fluorescent probe), Table 4; pKa of the cationic lipid of formula (I). In short, it runs like this:
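Lipid (2 mM ethanol stock) mixed with TNS probe (0.3 mM stock) and diluted into twelve sodium phosphate/citric acid buffers of varying pH. TNS fluorescence read after background subtraction and normalized to the lowest-pH value. pKa taken as the pH at half-maximal normalized fluorescence on the smoothed curve, precise to about 0.1 units.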
By pKa is commonly meant the pH at which an ionisable group is half protonated. Lower therefore signals a stronger acid or weaker base. For the compound `CCCCCCCC(=O)OCCCCCCCCOc1cc(CN(C)C)cc(OCCCCCCCCOC(=O)CCCCCCC)c1` [Example 42], the pKa was 5.93.

`CCCCCCCC(=O)OCCCCCCCCCCOc1cc(CN(C)C)cc(OCCCCCCCCCCOC(=O)CCCCCCC)c1` [Example 43] yielded a pKa of 5.85.

On to `CCCCCCCCCCOC(=O)CCCCCCCOc1cc(CN(C)C)cc(OCCCCCCCC(=O)OCCCCCCCCCC)c1` [Example 57], for which the pKa was found to be 5.94. This pKa and that of the compound before are within 0.2 log units of each other.

The data set is the same for the next values; noted with them: probe TNS (fluorescent probe), Table 5; pKa of the cationic lipid of formula (I).
The compound `CCCCCCCC(=O)OCCCCCCCCOc1cc(CN(C)C)cc(OCCCCCCCCOC(=O)CCCCCCC)c1` [Example 42] had a pKa of 5.93.

The compound `CCCCCCCC(=O)OCCCCCCCCCCOc1cc(CN(C)C)cc(OCCCCCCCCCCOC(=O)CCCCCCC)c1` [Example 43] returned a pKa of 5.85.

For the compound `CCCCCCCCCCOC(=O)CCCCCCCOc1cc(CN(C)C)cc(OCCCCCCCC(=O)OCCCCCCCCCC)c1` [Example 57], the pKa came out at 5.94.

Test system in a further data set: not listed separately
Description: Polydispersity index (PDI) of the lipid nanoparticle (dynamic light scattering). The format is physicochemical. Particulars: Table 4; FVII siRNA LNP; Chol/DSPC/stealth lipid PEG-DMG, 45/44/9/2. The source says: The lipid nanoparticles (LNPs) were formed by mixing equal volumes of lipids dissolved in alcohol with siRNA dissolved in a citrate buffer by an impinging jet process. […] The siRNA to total lipid ratio is approximately 0.05 (wt/wt). Where a LNP formulation contains four lipid components, the molar ratios correspond to the type of lipid as it appears in the first four columns of the table, in the order that they appear. The ratio of the lipids ranges from 20 to 70 mole percent for the cationic lipid with a target of 40-60, the mole percent of helper lipid ranges from 20 to 70 with a target of 30 to 50, the mole percent of neutral lipid ranges from 0-30, the mole percent of PEG lipid has a range from 1 to 6 with a target of 2 to 5. The concentration of siRNA solution ranges from 0.7 to 1.0 mg/mL with a target of 0.8 to 0.9 mg/mL in a sodium citrate: sodium chloride buffer pH 4-6, with a target of 4.5-5.5. The LNPs are formed by mixing equal volumes of lipid solution in ethanol with siRNA dissolved in a citrate buffer by an impinging jet process through a mixing device with ID ranging from 0.25 to 2.0 mm at a flow rate from 10 to 640 mL/min. The mixed LNP solution is held at room temperature for 0-24 hrs prior to a dilution step. […] The final product is sterile filtered and stored at 4° C. Unless indicated otherwise, all PDIs referred to herein are the PDI of the fully formed nanoparticle, as measured by dynamic light scattering on a Malvern Zetasizer. The nanoparticle sample was diluted in phosphate buffered saline (PBS) so that the count rate was approximately 200-400 kcts. The data is presented in Tables 4 and 5 as a weighted average of the intensity measure.
Compound `CCCCCCCC(=O)OCCCCCCCCCCOc1cc(CN(C)C)cc(OCCCCCCCCCCOC(=O)CCCCCCC)c1` [Example 43] returned a PDI of 0.08.

`CCCCCCCCCCOC(=O)CCCCCCCOc1cc(CN(C)C)cc(OCCCCCCCC(=O)OCCCCCCCCCC)c1` [Example 57]: the PDI stood at 0.03.

The same data set, now with this note: Table 4; FVII siRNA LNP; Chol/DSPC/stealth lipid S010, 45/44/9/2.
The compound `CCCCCCCC(=O)OCCCCCCCCOc1cc(CN(C)C)cc(OCCCCCCCCOC(=O)CCCCCCC)c1` [Example 42] returned a PDI of 0.084.

In turn, `CCCCCCCC(=O)OCCCCCCCCCCOc1cc(CN(C)C)cc(OCCCCCCCCCCOC(=O)CCCCCCC)c1` [Example 43] returned a PDI of 0.066.

For `CCCCCCCCCCOC(=O)CCCCCCCOc1cc(CN(C)C)cc(OCCCCCCCC(=O)OCCCCCCCCCC)c1` [Example 57], the PDI turned out to be 0.059.

Staying with this data set, now noted: Table 5; PLK1-424 siRNA LNP; stealth lipid S010, 45/44/9/2.
Consider `CCCCCCCC(=O)OCCCCCCCCOc1cc(CN(C)C)cc(OCCCCCCCCOC(=O)CCCCCCC)c1` [Example 42], for which the PDI came to 0.06.

`CCCCCCCC(=O)OCCCCCCCCCCOc1cc(CN(C)C)cc(OCCCCCCCCCCOC(=O)CCCCCCC)c1` [Example 43] displayed a PDI of 0.046.

As for `CCCCCCCCCCOC(=O)CCCCCCCOc1cc(CN(C)C)cc(OCCCCCCCC(=O)OCCCCCCCCCC)c1` [Example 57], the PDI was 0.038.

Test system in the next data set: not listed separately
As to the kind of experiment: Particle size of the lipid nanoparticle (dynamic light scattering, Malvern Zetasizer). The format is physicochemical. The note with it: Table 4; FVII siRNA LNP; Chol/DSPC/stealth lipid PEG-DMG, molar ratio 45/44/9/2; Z-average. From the text: The lipid nanoparticles have a size of about 1 to about 2,500 nm, about 1 to about 1,500 nm, about 1 to about 1,000 nm, in a sub-embodiment about 50 to about 600 nm, in a sub-embodiment about 50 to about 400 nm, in a sub-embodiment about 50 to about 250 nm, and in a sub-embodiment about 50 to about 150 nm. Unless indicated otherwise, all sizes referred to herein are the average sizes (diameters) of the fully formed nanoparticle, as measured by dynamic light scattering on a Malvern Zetasizer. The nanoparticle sample is diluted in phosphate buffered saline (PBS) so that the count rate is approximately 200-400 kcts. The data is presented as a weighted average of the intensity measure. The lipid nanoparticles (LNPs) were formed by mixing equal volumes of lipids dissolved in alcohol with siRNA dissolved in a citrate buffer by an impinging jet process. […] The siRNA to total lipid ratio is approximately 0.05 (wt/wt). Where a LNP formulation contains four lipid components, the molar ratios correspond to the type of lipid as it appears in the first four columns of the table, in the order that they appear. The ratio of the lipids ranges from 20 to 70 mole percent for the cationic lipid with a target of 40-60, the mole percent of helper lipid ranges from 20 to 70 with a target of 30 to 50, the mole percent of neutral lipid ranges from 0-30, the mole percent of PEG lipid has a range from 1 to 6 with a target of 2 to 5. The concentration of siRNA solution ranges from 0.7 to 1.0 mg/mL with a target of 0.8 to 0.9 mg/mL in a sodium citrate: sodium chloride buffer pH 4-6, with a target of 4.5-5.5. The LNPs are formed by mixing equal volumes of lipid solution in ethanol with siRNA dissolved in a citrate buffer by an impinging jet process through a mixing device with ID ranging from 0.25 to 2.0 mm at a flow rate from 10 to 640 mL/min. The mixed LNP solution is held at room temperature for 0-24 hrs prior to a dilution step. […] The final product is sterile filtered and stored at 4° C. Unless indicated otherwise, all particle size measurements referred to in Tables 4 and 5 are the Z-average particle size of the fully formed nanoparticle, as measured by dynamic light scattering on a Malvern Zetasizer. The nanoparticle sample was diluted in phosphate buffered saline (PBS) so that the count rate is approximately 200-400 kcts.
Regarding `CCCCCCCC(=O)OCCCCCCCCCCOc1cc(CN(C)C)cc(OCCCCCCCCCCOC(=O)CCCCCCC)c1` [Example 43], the “Size (nm)” value is listed as 157.8 nm.

The data set is the same for the next values; noted with them: Table 4; FVII siRNA LNP; Chol/DSPC/stealth lipid S010, molar ratio 45/44/9/2; Z-average.
Turning to `CCCCCCCC(=O)OCCCCCCCCOc1cc(CN(C)C)cc(OCCCCCCCCOC(=O)CCCCCCC)c1` [Example 42], the “Size (nm)” value is 120 nm.

In the case of `CCCCCCCC(=O)OCCCCCCCCCCOc1cc(CN(C)C)cc(OCCCCCCCCCCOC(=O)CCCCCCC)c1` [Example 43], the “Size (nm)” value is 121.9 nm.

Still in this data set, the particulars now being: Table 5; PLK1-424 siRNA LNP; Chol/DSPC/stealth lipid S010, 45/44/9/2; Z-average.
As for `CCCCCCCC(=O)OCCCCCCCCOc1cc(CN(C)C)cc(OCCCCCCCCOC(=O)CCCCCCC)c1` [Example 42], the “Size (nm)” value came out at 181.1 nm.

For `CCCCCCCC(=O)OCCCCCCCCCCOc1cc(CN(C)C)cc(OCCCCCCCCCCOC(=O)CCCCCCC)c1` [Example 43], the “Size (nm)” value is given as 150.7 nm.

In the next data set the test system is PLK-1 mRNA. As to the kind of experiment: LS411N Xenograft Assay with PLK1-424 siRNA lipid nanoparticles. It is filed as in vivo, Female Nu/Nu mice. The note with it: percent knock down of PLK-1 mRNA in tumor vs control; 3 mg/kg IV daily for three days, 24 h post last injection; stealth lipid S010. How it is done: Female Nu/Nu mice (6-8 weeks old) were implanted subcutaneously with 5×10^6 LS411N cells. Tumor growth was monitored by caliper measurement before treatment initiation. Mice bearing 150-250 mm^3 subcutaneous tumors were randomized and enrolled in the study. The stock siRNA formulations were diluted to […] with PBS for dosing. Animals enrolled in different groups received a single daily bolus IV injection of 3 mg/kg siRNA for three days. Tumors were harvested 24 hours post last injection to assess target gene regulation by qRT-PCR.
Lipid nanoparticles comprising lipid compounds of formula (I) and the PLK1-424 siRNA duplex sequence listed above were tested in the LS411N Xenograft Assay. The results of this assay are given in Table 5 below as a percent knock down of PLK-1 mRNA as compared to the control when administered as a single daily dose for three days at a dose of 3 mg/kg.
On to `CCCCCCCC(=O)OCCCCCCCCOc1cc(CN(C)C)cc(OCCCCCCCCOC(=O)CCCCCCC)c1` [Example 42], for which the “LS411 KD 3 × 3 mg/Kg” value worked out at 50%.

As for `CCCCCCCC(=O)OCCCCCCCCCCOc1cc(CN(C)C)cc(OCCCCCCCCCCOC(=O)CCCCCCC)c1` [Example 43], the “LS411 KD 3 × 3 mg/Kg” value came out at 40%.

As to `CCCCCCCCCCOC(=O)CCCCCCCOc1cc(CN(C)C)cc(OCCCCCCCC(=O)OCCCCCCCCCC)c1` [Example 57], the “LS411 KD 3 × 3 mg/Kg” value was found to be 60%.
